Measured values from US9550815B2, “ABC terpenoid transporters and methods of using the same” (priority 2012, dated 2017).

Legend:
[1] = test system: mutant Δgcabc-g1 fungal spores; assay: Asexual spore germination and survival with monoterpenes; format: cell-based, Grosmannia clavigera
Description: (§1) G. clavigera WT or mutant Δgcabc-g1 fungal spores were collected from 7-14 day old cultures grown on MEA (0.83% Oxoid™ malt extract agar and 0.75% technical agar, pH was adjusted to 5-6). Mycelium debris was removed by filtration (BD Falcon Cell Strainers; cat #08-771-1). Spore concentrations were determined using a haemocytometer and further diluted to ˜2 spores/μL. 100 μL of the spore suspension was spread on MEA in glass plates. For monoterpene treatment, two (2×4 cm) strips of filter paper were placed inside the lid of the plate and 200 μL of a mixture of monoterpenes were added onto the filter paper. For diterpene treatment, 100 μL of the spore suspension was spread on MEA containing 0.01% of a mixture of diterpenes (abietic acid, dehydroabietic acid and isopimaric acid). The glass plates were sealed with DuraSeal™ film (Laboratory Sealing Film, VWR, cat #89031-573) and incubated at ˜22° C. in a sealed glass container. The germinated spores were counted daily; at day 6 the monoterpenes were removed and the MEA plates were further incubated for 4 days to assess the survival of the spores.

[2] = test system: G. clavigera WT fungal spores; assay: as above; format: cell-based, Grosmannia clavigera; settings: MEA, 200 μL monoterpene; for spore germination partially reduced, G. clavigera: 6 days, relative to non-treated control; for spore germination inhibition, G. clavigera: counted after 6 days
Description: as §1

mutant Δgcabc-g1 [3] = assay: Mycelium growth on MEA with monoterpenes; format: cell-based, Grosmannia clavigera; settings: for growth delay of mutant Δgcabc-g1: 200 μL individual monoterpene or MT; for growth rate of mutant Δgcabc-g1 lower than G. clavigera WT / fungal growth rate, mutant Δgcabc-g1: 200 μL monoterpene; for fungal growth rate, mutant Δgcabc-g1: linear phase after delay
Description: (§2) Mono- and diterpene treatments were performed on glass petri dishes with the mono- and diterpenes applied to filter paper that was placed in the cover of the petri dish, which was sealed by Duraseal film. Specifically, plugs of actively growing G. clavigera fungal cultures on MEA were transferred into the center of glass petri dishes containing yeast nitrogen base-complete medium (YNB-CM; 0.17% YNB without amino acids, 1.5% granulated agar, 1% maltose, 0.1% PHP, and 0.3% asparagine). Two (2×4 cm) strips of filter paper were placed inside the lid of the plate and 200 μL of individual mono- or diterpenes or a mixture of monoterpenes (MT) were added onto the filter paper. The glass plates were sealed with DuraSeal™ film (Laboratory Sealing Film, VWR, cat #89031-573) and incubated at ˜22° C. in a sealed glass container for 7 days or until the mycelium reached the edge of the plates. Colony diameters were measured daily.
Agrobacterium GV3101, a laboratory stock, was used to transform G. clavigera. The whole gene open reading frame (ORF) encoding GcABC-G1 in G. clavigera was replaced with the selective gene marker hygromycin B (hph). Gene replacement (deletion) was verified by PCR amplification of adjacent regions, target region and selective marker gene, and copy numbers were determined by southern blot. The G. clavigera GcABC-G1 deletion mutant was designated mutant Δgcabc-g1.
(§3) Colony morphologies and growth rates were examined for G. clavigera WT and mutant Δgcabc-g1 grown on malt extract agar (MEA) in the presence and absence of 200 μL of a mixture of monoterpenes as described in Example 3.A.1. above. Fungal growth rates were calculated (mm/day). Mycelium growth rates were also determined in the presence or absence of 200 μL of individual monoterpenes, including R-(+)-limonene, 3-carene, α-pinene and β-pinene, or 200 μL of a mixture of monoterpenes (R-(+)-limonene, 3-carene, α-pinene and β-pinene at a ratio of 5:3:1:1). Fungal spores were incubated for 3 days on MEA overlaid with cellophane (Amersham Biosciences, cat #80611781); then the young mycelia were treated with individual monoterpenes or a mixture of monoterpenes (200 μL) for 3-4 days before being transferred onto YNB. In YNB, monoterpenes were provided on filter paper as described in Example 3.A.1. and if necessary were re-supplied biweekly until the mycelia covered at least half of the media surface (3-4 weeks). Colony diameters were measured daily. Fungal growth rates were calculated (mm/day). Results were calculated as the average of 5 replicates and standard deviation was calculated.

Wildtype G. clavigera = assay: Growth on YNB with monoterpenes as sole carbon source; format: cell-based, Grosmannia clavigera; settings: 200 μL, 4 weeks
Description: (§4) Fungal spores were incubated for 3 days on 1% malt extract agar (MEA) overlaid with cellophane (Amersham Biosciences, cat #80611781), then the young mycelia were treated with a mixture of monoterpenes (200 μL) for 3-4 days before being transferred onto yeast nitrogen base (YNB) medium with a mixture of monoterpenes (MT) as sole carbon source (YNB+MT; […] YNB without amino acids, but with ammonium sulphate) in glass plates. The synthetic monoterpenoid blend contained R-(+)-limonene, 3-carene, α-pinene and β-pinene at a ratio of 5:3:1:1. If necessary monoterpenes were re-supplied biweekly until the mycelia covered at least half of the media surface (3-4 weeks). RNA-seq analysis was performed after 10 days. G. clavigera grown on YNB+1% mannose as the sole carbon source was used as a control.
(§5) Experiments were performed as described in Example 3.A.2. Growth of wildtype G. clavigera and the mutant Δgcabc-g1 was determined utilizing yeast nitrogen base (YNB)+either 10 μL or 200 μL of (+)-limonene, α-pinene or β-pinene. Growth was determined after 4 weeks. Monoterpenes were re-supplied every 2 weeks. Growth on YNB alone was used as a negative control. Growth on YNB+1% mannose was used as a positive control.

Sc-ABC = assay: Yeast cell survival, dilution plate assay; format: cell-based, Saccharomyces cerevisiae; settings: for Observation (B) Transformed Sc survival: GcABC-G1-dependent difference, Sc-ABC versus Sc-V; for relative inhibition of the yeast GcABC-G1 transformant by individual monoterpenoids: individual monoterpenoids compared; for Sc-ABC cells survived relative to Sc-V: one-hour treatment, 5 μL monoterpene, counted after 4 days
Description: The survival of Sc-V and Sc-ABC with individual monoterpenes was shown using a dilution plate assay. Overnight yeast cultures grown in SG broth were diluted to an OD600 of 0.2 and further grown to an OD600 of 0.4 at 28° C. The yeast cells were diluted to an appropriate density that was spread on SG media in Petri dishes glass (10^5 per petri dish). The yeast cells were treated for one hour with a specific monoterpene (5 μL) diluted in 245 μL ethanol; the solution was applied on five small filter papers placed inside the lid and the glass plates were sealed with DuraSeal film. After one-hour incubation, the chemical was removed and plates were further incubated for 4 days at 28° C. The numbers of surviving cells with and without monoterpene treatments were counted.

G. clavigera WT [4] = assay: Mycelium growth on MEA with monoterpenes; format: cell-based, Grosmannia clavigera; settings: for growth delay of G. clavigera WT: 200 μL individual monoterpene or MT; for fungal growth rate, G. clavigera WT: 200 μL monoterpene, linear phase after delay
Description: as §2, §3

O. piceae = assay: Growth on YNB with quinic acid as sole carbon source; format: cell-based, Ophiostoma piceae; settings: YNB media
Description: The cluster contains seven genes that include a quinate permease, two regulatory genes, one acting as an activator and the other as a repressor, and the four genes of the quinate/shikamate catabolic pathway (Asch et al. (1991) Mol Gen Genet 230(3):337-344, Giles et al. J Hered 82(1):1-7). The latter four catabolic genes (OPP_08735 to OPP_08738) reveal that O. piceae uses quinic acid in wood as a carbon source. While this gene cluster is reported in many fungi, this gene cluster was not identified in G. clavigera. […] Finally, a secreted lipase (OPP_00605) with a predicted triglycerides degradation activity was identified; its abundance relative to the control mannose was at least 50-fold.

mutant Δgcabc-g1 [5] = assay: Growth on YNB with monoterpenes as sole carbon source; format: cell-based, Grosmannia clavigera
Description: as §4, §5

mutant Δgcabc-g1 [6] = assay: Growth on MEA with individual diterpenes; format: cell-based, Grosmannia clavigera; settings: individual diterpene in MEA (0.1% per FIG. 8), pH ~8.0
Description: (§6) Growth rates were examined for G. clavigera WT and the mutant Δgcabc-g1 grown on MEA in the presence or absence of 200 μL of abietic acid, dehydroabietic acid and isopimaric acid as described in Example 3.A.2. Each diterpene was dissolved in a basic NaOH solution before being added into the MEA medium; the final pH of the medium was ˜8.0. Growth rates were calculated daily (mm/day). The results are shown in FIG. 8, which indicates growth rate in mm/24 hr for the average of three replicates. Error bar represents standard deviation.

G. clavigera WT [7] = assay: Growth on MEA with individual diterpenes; format: cell-based, Grosmannia clavigera; settings: individual diterpene in MEA (0.1% per FIG. 8), pH ~8.0
Description: as §6

[8] = MEA, 200 μL monoterpene, 6 days

Row | SMILES | spore germination, mutant Δgcabc-g1 [1, 8] | Observation (A) Gc spore survival ([1]; {}) | growth delay of mutant Δgcabc-g1 (mutant Δgcabc-g1 [3]) | growth with monoterpene as sole carbon source, wildtype G. clavigera (Wildtype G. clavigera) | Observation (B) Transformed Sc survival (Sc-ABC) | Sc-ABC cells survived relative to Sc-V (Sc-ABC) | growth delay of G. clavigera WT (G. clavigera WT [4]) | further results
1 | C=C1CC[C@H]2C[C@@H]1C2(C)C [(−)-β-pinene, (1S)-(−)-β-Pinene] | completely prevent spore germination | + (Difference between with and without GcABC-G1 is less than 50%, P-value < 0.01) | up to 3 days | not able to utilize | +++ (Difference between with and without GcABC-G1 is more than 50%, P-value < 0.01) | ~3 times | – | spore germination partially reduced, G. clavigera [2]: ~70%; growth rate of mutant Δgcabc-g1 lower than G. clavigera WT (mutant Δgcabc-g1 [3]): 60%; relative inhibition of the yeast GcABC-G1 transformant by individual monoterpenoids (Sc-ABC): strongest inhibition effect
2 | CC1=CCC2C(C1)C2(C)C (centres unmarked) [3-carene] | completely prevent spore germination | +++ (Difference between with and without GcABC-G1 is more than 50%, P-value < 0.01) | 2 days | – | +++ (Difference between with and without GcABC-G1 is more than 50%, P-value < 0.01) | approximately 30 times | 1 days | spore germination inhibition, G. clavigera [2]: not inhibited; fungal growth rate, mutant Δgcabc-g1 (mutant Δgcabc-g1 [3]): 5 to 6 mm/day; fungal growth rate, G. clavigera WT (G. clavigera WT [4]): 5 to 6 mm/day
3 | CC1=CCC2CC1C2(C)C (racemic) [α-pinene] | – | + (Difference between with and without GcABC-G1 is less than 50%, P-value < 0.01) | 1 days | not able to utilize | – | not significantly different | not | spore germination reduced, mutant Δgcabc-g1 ([1]; MEA, 200 μL monoterpene, 6 days, relative to non-treated control): 30%; spore germination inhibition, G. clavigera [2]: not inhibited; fungal growth rate, mutant Δgcabc-g1 (mutant Δgcabc-g1 [3]): ~7 mm/day; fungal growth rate, G. clavigera WT (G. clavigera WT [4]): ~7 mm/day
4 | O=C(O)[C@]1(O)C[C@@H](O)[C@@H](O)[C@H](O)C1 [quinic acid] | – | – | – | – | – | – | – | growth of O. piceae with quinic acid as sole carbon source (O. piceae): grows
5 | C=C(C)C1CC=C(C)CC1 (single isomer, unassigned; (+)) [(+)-limonene, R-(+)-limonene] | completely prevent spore germination | – | 2 days | grew | +++ (Difference between with and without GcABC-G1 is more than 50%, P-value < 0.01) | approximately 7 times | 1 days | Observation (A) Gc spore survival ([1]; GcABC-G1-dependent difference, Gc versus Δgcabc-g1): + (Difference between with and without GcABC-G1 is less than 50%, P-value < 0.01); spore germination partially reduced, G. clavigera [2]: ~70%; growth rate of mutant Δgcabc-g1 lower than G. clavigera WT (mutant Δgcabc-g1 [3]): 52%; fate of mutant Δgcabc-g1 on YNB with monoterpene (mutant Δgcabc-g1 [5]; 10 μL): survived, but did not grow; fate of mutant Δgcabc-g1 on YNB with monoterpene (mutant Δgcabc-g1 [5]; 200 μL): killed; relative inhibition of the yeast GcABC-G1 transformant by individual monoterpenoids (Sc-ABC): least inhibitory effect
6 | C=C[C@@]1(C)CC[C@H]2C(=CC[C@@H]3[C@]2(C)CCC[C@@]3(C)C(=O)O)C1 [isopimaric acid] | – | – | – | – | – | – | – | growth inhibition, mutant Δgcabc-g1 (mutant Δgcabc-g1 [6]): only slightly inhibited growth; growth inhibition, G. clavigera WT (G. clavigera WT [7]): only slightly inhibited growth
7 | CC(C)C1=CC2=CC[C@@H]3[C@](C)(CCC[C@@]3(C)C(=O)O)[C@H]2CC1 [abietic acid] | – | – | – | – | – | – | – | growth inhibition, mutant Δgcabc-g1 (mutant Δgcabc-g1 [6]): only slightly inhibited growth; growth inhibition, G. clavigera WT (G. clavigera WT [7]): only slightly inhibited growth
